Data as given in ChEMBL document CHEMBL4414660, “Effect of Modifier Structure on the Activation of Leukotriene A4 Hydrolase Aminopeptidase Activity” (J Med Chem, 2019).
Active and inactive are the calls of the source. The rule behind the calls is not given here.

How the values were obtained:
[1] = system: Neutrophil; assay: Inhibition of LTB4 production in A23187-stimulated human neutrophils at 0.001 to 1000 microM incubated for 30 mins by ELISA; assay type: functional, cell-based
[2] = molecular target: T1, Leukotriene A-4 hydrolase (Homo sapiens) (UniProt P09960); assay: (§1) Activation of N-terminal (His)6 and Xpress-tagged LTA4H (unknown origin) expressed in Escherichia coli BL21(DE3) cells assessed as increase in aminopeptidase activity by measuring factor by which activator affects catalytic constant for hyperbolic mixed predominantly catalytic activation using L-Alanine-p-nitroanilide incubated for 10 mins by p-nitroanilide release detection based UV plate reader based assay
T1 sequence (whole entry): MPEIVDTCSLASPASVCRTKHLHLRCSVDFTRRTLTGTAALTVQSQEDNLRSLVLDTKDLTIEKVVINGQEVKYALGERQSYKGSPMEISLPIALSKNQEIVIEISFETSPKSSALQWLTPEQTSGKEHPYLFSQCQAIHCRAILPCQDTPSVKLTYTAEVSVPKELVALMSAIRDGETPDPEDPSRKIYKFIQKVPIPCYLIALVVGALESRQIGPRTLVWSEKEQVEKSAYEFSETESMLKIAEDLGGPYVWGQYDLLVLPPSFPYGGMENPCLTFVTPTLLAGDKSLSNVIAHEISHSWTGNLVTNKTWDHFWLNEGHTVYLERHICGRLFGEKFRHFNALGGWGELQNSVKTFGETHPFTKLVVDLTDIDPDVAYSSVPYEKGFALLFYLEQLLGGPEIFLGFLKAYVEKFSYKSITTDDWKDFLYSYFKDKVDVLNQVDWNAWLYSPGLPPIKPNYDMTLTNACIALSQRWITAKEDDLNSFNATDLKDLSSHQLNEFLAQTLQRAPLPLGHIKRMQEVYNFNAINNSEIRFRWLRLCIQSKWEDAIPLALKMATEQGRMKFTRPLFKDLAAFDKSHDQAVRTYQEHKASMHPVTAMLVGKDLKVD

[3] = molecular target: T2, Leukotriene A-4 hydrolase (Homo sapiens, UniProt P09960); assay: Activation of N-terminal (His)6 and Xpress-tagged LTA4H (unknown origin) expressed in Escherichia coli BL21(DE3) cells assessed as increase in aminopeptidase activity by measuring p-nitroanilide release using L-Alanine-p-nitroanilide incubated for 10 mins by UV plate reader based assay
T2 sequence (P09960 whole entry): T1 sequence (whole entry)

[4] = molecular target: T1, Leukotriene A-4 hydrolase (Homo sapiens); assay: as §1, with “dissociation” for “factor by which activator affects catalytic”, “constant (KX)” for “constant”
[5] = molecular target: T1, Leukotriene A-4 hydrolase (Homo sapiens); assay: as §1, with “reciprocal allosteric coupling” for “factor by which activator affects catalytic”

Row | SMILES | inhibition [1] | fold change (FC) [2] | AC50 [3] [µM] | K [4] [µM] | K [5]
1 | CC(C)C[C@H](NC(=O)[C@@H](O)[C@H](N)Cc1ccccc1)C(=O)O | Active | – | – | – | –
2 | Nc1nc(-c2ccc(Cc3ccccc3)cc2)cs1 | – | 25.4 | 0.24 | 1.35 | 0.82
3 | Cc1ccccc1Cc1ccc(-c2csc(N)n2)cc1 | – | – | 6.62 | – | –
